Test results from patent publication EP0334551A1, “Anti-neoplastic formulations” (priority 1988, dated 1989).
Where two headings read alike, the source gives them in different places.

Legend:
[1] = aqueous solution of unlyophilised carboplatin in sterile water, at room temperature
Description: The solutions obtained were filled into amber moulded 20 ml vials and sealed with Teflon-lined caps, West 541. The above two solutions were stored at room temperature for 15 months, then tested for stability. […] The solution was filled into 20 ml amber moulded vials and sealed with grey chlorobutyl rubber caps. […] Each solution was filled into 6 ml clear drawn vials and sealed with Teflon lined caps.

[2] = in all the infusion fluids studied; cited from earlier work
[3] = reconstituted solutions of the lyophilised powder, cited from earlier work

| Molecule | stable (time) [1] | stable (time) [2] | stable (time) ([3]; at room temperature) | stable (time) ([3]; under refrigeration) |
| --- | --- | --- | --- | --- |
| [NH2][Pt]1([NH2])[O]C(=O)C2(CCC2)C(=O)[O]1 [carboplatin, cis-Diamine[1,1-cyclobutanedicarboxylato-(2-)-O,O′]platinum [SP-4-27]] | at least 18 months | 24 h | 8 h | 24 h |
| iproplatin |  | 24 h |  |  |
